Measured values as given in US10351559B2, “Maleate salts of a B-RAF kinase inhibitor, crystalline forms, methods of preparation, and uses therefore” (BeiGene, Ltd., priority 2015, dated 2019).

What was measured:
[1] = hygroscopicity (moisture sorption) by DVS; format: physicochemical; details: from 0 to 80% RH
Description: The free base of Compound 1 was obtained originally as an amorphous solid, which is slightly hygroscopic with 2.2% water gain from 0 to 80% RH. No form transformation was observed after dynamic vapor sorption (DVS).

[2] = short-term stability study (1 week, 60° C. and 40° C./75% RH); format: physicochemical
Description: Weighed about 2 mg (For XRPD: 10 mg) of each of the above salts in a 40 mL glass vial, separately. The free base form was used as control. The closed samples were capped and sealed with parafilm, while the opened samples were covered by aluminum foil with pinhole. All the samples were stored in stability chamber or dry oven at the corresponding conditions (60° C. and 40° C./75% RH) for 1 week.

aqueous solubility study = format: physicochemical; details: listed as free base of Compound 1
tissue distribution = format: in vivo; details: various tissues, brain
CYP3A = experiment: CYP isoforms responsible for metabolism; format: in vitro ADME
[3] = pharmacokinetic comparison of sesqui-maleate and free base, oral; format: in vivo, Beagle dogs; details: dogs, oral dose 1 mg/kg (free base); listed as Free Base (Lyophilized Amorphous Form), 1 mg/kg
Description: Drugs and reagents: Crystalline Form A* of Compound 1 Sesqui-Maleate with particle sizes of D90=4.1 um, D10=1.5 um, D50=2.4 um after micronization. The material content (purity) was not less than 98.0%.
Experiment animals: Beagle dogs, male and female.
Pharmaceutical preparation: Weigh the appropriate amount of each substance and disperse in 0.5% sodium carboxymethyl cellulose (for the free base of Compound 1) or 0.5% methyl cellulose solution (for Compound 1 Sesqui-Maleate). Prepare a suspension at the desired concentration of Compound 1. All the doses and concentrations of Compound 1 were calculated with free base in this study.
Administration and sample collection: The dosing solutions will be freshly prepared prior to dose administration. The actual body weights and actual volume injected will be recorded accordingly. The dogs were fasted overnight and were allowed to intake food four hours after dosing. Each suspension was administrated orally to dogs at a dose ranged from 0.5 to 15 mg/kg. Blood samples (˜1.0 mL) will be collected at pre-dose and at different times up to 36 hours postdosing via cephalic vein plexus. Whole blood will be processed by centrifugation and plasma samples will be collected and kept at freezer prior to analysis. Plasma samples were processed by protein precipitation. Concentrations of Compound 1 in the plasma samples were determined using a validated liquid chromatography-tandem mass spectrometry (LC-MS/MS) method. The plasma concentration-time data were analyzed using a non-compartmental model using Pharsight WinNonlin.

[4] = system: BRAF V600E and KRAS cancers; experiment: Phase I clinical study; format: in vivo, human
[5] = 16 KRAS cancer patients treated

TRS % ([2]; 0 day) [%] | TRS % ([2]; 40° C./75% RH, 1 week) [%] | TRS % ([2]; 60° C., 1 week) [%] | chemical degradation ([2]; after one week at 60° C. and 40° C./75% RH) | appearance by visual observation ([2]; both conditions after 1 week) | Molecule | water (weight) gain [1] | solubility in water (aqueous solubility study) | aqueous solubility (aqueous solubility study; water, LOQ at 0.001 mg/mL) [µg/mL] | TRS % ([2]; 0 day, listed as API free base) [%] | TRS % ([2]; 40° C./75% RH, 1 week, listed as API free base) [%] | TRS % ([2]; 60° C., 1 week, listed as API free base) [%] | tissue distribution (tissue distribution) | CYP isoform responsible for metabolism (CYP3A) | Cmax [3] [ng/mL] | Dose-Normalized AUC0-inf [3] [ng·kg·h/mL/mg] | number of PR [4, 5] [PR] | patients survived more than 2.2 months [4, 5] | clinical response ([4]; BRAF V600E CRC patients) | clinical response ([4]; BRAF V600E PTC patients) | clinical response ([4]; BRAF V600E melanoma patients)
0.08 | 0.51 | 1.16 | showed degradations | no change | 2-hydroxyethanesulfonate | around 4% | – | – | – | – | – | – | – | – | – | – | – | – | – | –
– | – | – | – | – | O=C1CCc2c(Oc3ccc4c(c3)[C@@H]3[C@H](O4)[C@H]3c3nc4ccc(C(F)(F)F)cc4[nH]3)ccnc2N1 [Compound 1, 5-(((1R,1aS,6bR)-1-(6-(trifluoromethyl)-1H-benzo[d]imidazol-2-yl)-1a,6b-dihydro-1H-cyclopropa[b]benzofuran-5-yl)oxy)-3,4-dihydro-1,8-naphthyridin-2(1H)-one] | 2.2% | substantially insoluble in water | < 1 | 0.12 | 0.11 | 0.12 | widely distributed to various tissues, but was low in brain tissue | CYP3A was the major CYP isoform | 257 | 1512 | 3 | at least 12 patients | some anti-tumor activities | partial responses | partial responses
